Earlier results in PMC12123727 (BMC Cancer, 2025).

Legend:
[1] = test system: r/r FL; settings: patients with r/r FL, cited from earlier work
[2] = test system: DLBCL; settings: patients with DLBCL, 2/19; cited from earlier work

SMILES | objective response rate (ORR) ([1]; 19/39) [%] | median PFS [1] [months] | ORR [2] [%]
O=C(CCCCCCC(=O)Nc1ccccc1)NO [Vorinostat, vorinostat] | 49 | 20 | –
O=C(/C=C/c1cccc(S(=O)(=O)Nc2ccccc2)c1)NO [Belinostat, belinostat] | – | – | 10.5
